According to PubChem BioAssay (NCI):
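Protocol summary: plate cells (96-well), add compound at 5 concentrations, incubate 48 h, interpolate endpoints linearly. Definition used: TGI = concentration required for complete inhibition of growth.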

Key:
Assay in all cases: inhibition of tumour cell growth, NCI panel, 48 h
HCT-15 colon = tested on: HCT-15 colon
OVCAR-4 ovarian = tested on: OVCAR-4 ovarian
SN12C renal = tested on: SN12C renal
786-0 renal = tested on: 786-0 renal
MALME-3M melanoma = tested on: MALME-3M melanoma
A549 NSCLC = tested on: A549 NSCLC
SF-539 CNS = tested on: SF-539 CNS
LOX IMVI melanoma = tested on: LOX IMVI melanoma
COLO 205 colon = tested on: COLO 205 colon
U251 CNS = tested on: U251 CNS
CCRF-CEM leukemia = tested on: CCRF-CEM leukemia
UO-31 renal = tested on: UO-31 renal
MDA-N = tested on: MDA-N
SK-MEL-5 melanoma = tested on: SK-MEL-5 melanoma
OVCAR-5 ovarian = tested on: OVCAR-5 ovarian
RXF 393 renal = tested on: RXF 393 renal
SK-MEL-28 melanoma = tested on: SK-MEL-28 melanoma
SW-620 colon = tested on: SW-620 colon
MOLT-4 leukemia = tested on: MOLT-4 leukemia
HOP-92 NSCLC = tested on: HOP-92 NSCLC
SF-295 CNS = tested on: SF-295 CNS
KM12 colon = tested on: KM12 colon
K-562 leukemia = tested on: K-562 leukemia
MDA-MB-231 breast = tested on: MDA-MB-231 breast
UACC-62 melanoma = tested on: UACC-62 melanoma
OVCAR-8 ovarian = tested on: OVCAR-8 ovarian
HT29 colon = tested on: HT29 colon
ACHN renal = tested on: ACHN renal
SNB-75 CNS = tested on: SNB-75 CNS
NCI-H226 lung = tested on: NCI-H226 lung
SK-OV-3 ovarian = tested on: SK-OV-3 ovarian
UACC-257 melanoma = tested on: UACC-257 melanoma
IGROV1 ovarian = tested on: IGROV1 ovarian
HCT-116 colon = tested on: HCT-116 colon
TK-10 renal = tested on: TK-10 renal
CAKI-1 renal = tested on: CAKI-1 renal
NCI-H460 lung = tested on: NCI-H460 lung
NCI-H23 lung = tested on: NCI-H23 lung
MDA-MB-435 = tested on: MDA-MB-435
HCC-2998 colon = tested on: HCC-2998 colon
HL-60(TB) leukemia = tested on: HL-60(TB) leukemia
OVCAR-3 ovarian = tested on: OVCAR-3 ovarian
NCI-H522 lung = tested on: NCI-H522 lung
SF-268 CNS = tested on: SF-268 CNS
SK-MEL-2 melanoma = tested on: SK-MEL-2 melanoma
MCF7 breast = tested on: MCF7 breast
SR leukemia = tested on: SR leukemia
RPMI-8226 leukemia = tested on: RPMI-8226 leukemia
NCI/ADR-RES ovarian = tested on: NCI/ADR-RES ovarian
EKVX NSCLC = tested on: EKVX NSCLC
HOP-62 NSCLC = tested on: HOP-62 NSCLC
M14 melanoma = tested on: M14 melanoma
T-47D breast = tested on: T-47D breast
PC-3 prostate = tested on: PC-3 prostate
BT-549 breast = tested on: BT-549 breast
SNB-19 CNS = tested on: SNB-19 CNS
A498 renal = tested on: A498 renal
DU-145 prostate = tested on: DU-145 prostate
HS 578T breast = tested on: HS 578T breast

Work on `O=C1Sc2cc3ccccc3cc2C(=O)Sc2cc3ccccc3cc21` yielded a TGI (HCT-15 colon) of 90.7 µM, a TGI (OVCAR-4 ovarian) of 69.5 µM and a TGI (SN12C renal) of 75.7 µM. The TGI (786-0 renal) was 59 µM, the TGI (MALME-3M melanoma) was greater than 93.5 µM and the TGI (A549 NSCLC) was greater than 100 µM. The TGI (SF-539 CNS) was greater than 100 µM, the TGI (LOX IMVI melanoma) was 48.1 µM and the TGI (COLO 205 colon) was greater than 100 µM. It also gave a TGI (U251 CNS) greater than 100 µM, a TGI (CCRF-CEM leukemia) of 12.5 µM and a TGI (UO-31 renal) of 37.1 µM. It also gave a TGI (MDA-N) greater than 100 µM, a TGI (SK-MEL-5 melanoma) greater than 100 µM and a TGI (OVCAR-5 ovarian) greater than 100 µM. For the same molecule, the TGI (RXF 393 renal) was 35.7 µM, the TGI (SK-MEL-28 melanoma) was greater than 85.4 µM and the TGI (SW-620 colon) was greater than 100 µM. The TGI (MOLT-4 leukemia) was 76.8 µM, the TGI (HOP-92 NSCLC) was greater than 87.6 µM and the TGI (SF-295 CNS) was greater than 100 µM. It also gave a TGI (KM12 colon) greater than 100 µM, a TGI (K-562 leukemia) greater than 100 µM and a TGI (MDA-MB-231 breast) greater than 100 µM. It also gave a TGI (UACC-62 melanoma) of 67.2 µM, a TGI (OVCAR-8 ovarian) greater than 89.2 µM and a TGI (HT29 colon) greater than 90.5 µM. For the same molecule, the TGI (ACHN renal) was greater than 63.6 µM, the TGI (SNB-75 CNS) was greater than 100 µM and the TGI (NCI-H226 lung) was greater than 100 µM. The TGI (SK-OV-3 ovarian) was greater than 100 µM, the TGI (UACC-257 melanoma) was greater than 78.7 µM and the TGI (IGROV1 ovarian) was greater than 100 µM. The TGI (HCT-116 colon) was 38.5 µM, the TGI (TK-10 renal) was greater than 100 µM and the TGI (CAKI-1 renal) was greater than 90.1 µM. The TGI (NCI-H460 lung) was greater than 100 µM, the TGI (NCI-H23 lung) was greater than 100 µM and the TGI (MDA-MB-435) was greater than 100 µM. It also gave a TGI (HCC-2998 colon) of 58.7 µM, a TGI (HL-60(TB) leukemia) of 27.1 µM and a TGI (OVCAR-3 ovarian) greater than 63.5 µM. For the same molecule, the TGI (NCI-H522 lung) was 41.5 µM, the TGI (SF-268 CNS) was greater than 83.7 µM and the TGI (SK-MEL-2 melanoma) was greater than 66.5 µM. The TGI (MCF7 breast) was greater than 100 µM, the TGI (SR leukemia) was 9.27 µM and the TGI (RPMI-8226 leukemia) was greater than 24.6 µM. It also gave a TGI (NCI/ADR-RES ovarian) greater than 92.3 µM, a TGI (EKVX NSCLC) greater than 100 µM and a TGI (HOP-62 NSCLC) greater than 85.2 µM. The TGI (M14 melanoma) was greater than 63.9 µM, the TGI (T-47D breast) was greater than 75 µM and the TGI (PC-3 prostate) was greater than 100 µM. The TGI (BT-549 breast) was greater than 100 µM, the TGI (SNB-19 CNS) was greater than 100 µM and the TGI (A498 renal) was greater than 100 µM. For the same molecule, the TGI (DU-145 prostate) was greater than 100 µM and the TGI (HS 578T breast) was greater than 100 µM.

With `O=C1/C(=C(/Br)I)c2ccccc2-c2ccccc21` the TGI (HCT-15 colon) was 16.6 µM, the TGI (OVCAR-4 ovarian) was 32.3 µM and the TGI (SN12C renal) was 33.7 µM. The TGI (786-0 renal) was 10.2 µM, the TGI (MALME-3M melanoma) was 11.5 µM and the TGI (A549 NSCLC) was 32 µM. For the same molecule, the TGI (SF-539 CNS) was 28.7 µM, the TGI (LOX IMVI melanoma) was 12.2 µM and the TGI (COLO 205 colon) was 4.22 µM. It also gave a TGI (U251 CNS) of 25.5 µM, a TGI (CCRF-CEM leukemia) of 5.93 µM and a TGI (UO-31 renal) of 6.2 µM. For the same molecule, the TGI (MDA-N) was 9.78 µM, the TGI (SK-MEL-5 melanoma) was 31.1 µM and the TGI (OVCAR-5 ovarian) was 25.5 µM. For the same molecule, the TGI (RXF 393 renal) was 13.1 µM, the TGI (SK-MEL-28 melanoma) was 42.8 µM and the TGI (SW-620 colon) was 8.12 µM. For the same molecule, the TGI (MOLT-4 leukemia) was 6.27 µM, the TGI (HOP-92 NSCLC) was 8.07 µM and the TGI (SF-295 CNS) was 31.4 µM. For the same molecule, the TGI (KM12 colon) was 32 µM, the TGI (K-562 leukemia) was 7.24 µM and the TGI (MDA-MB-231 breast) was 19.2 µM. It also gave a TGI (UACC-62 melanoma) of 21.2 µM, a TGI (OVCAR-8 ovarian) of 31.5 µM and a TGI (HT29 colon) of 18.3 µM. The TGI (ACHN renal) was 19 µM, the TGI (SNB-75 CNS) was 29.7 µM and the TGI (NCI-H226 lung) was 35.4 µM. The TGI (SK-OV-3 ovarian) was 29.8 µM, the TGI (UACC-257 melanoma) was 18.5 µM and the TGI (IGROV1 ovarian) was 27.7 µM. The TGI (HCT-116 colon) was 25.2 µM, the TGI (TK-10 renal) was 21.3 µM and the TGI (CAKI-1 renal) was 16.9 µM. For the same molecule, the TGI (NCI-H460 lung) was 41.2 µM, the TGI (NCI-H23 lung) was 46.4 µM and the TGI (MDA-MB-435) was 22 µM. For the same molecule, the TGI (HCC-2998 colon) was 11.4 µM, the TGI (HL-60(TB) leukemia) was 0.516 µM and the TGI (OVCAR-3 ovarian) was 24.6 µM. For the same molecule, the TGI (NCI-H522 lung) was 5.27 µM, the TGI (SF-268 CNS) was 31.1 µM and the TGI (SK-MEL-2 melanoma) was 31.5 µM. It also gave a TGI (MCF7 breast) of 32.9 µM, a TGI (SR leukemia) greater than 30.5 µM and a TGI (RPMI-8226 leukemia) of 8.37 µM. The TGI (NCI/ADR-RES ovarian) was 30.4 µM, the TGI (EKVX NSCLC) was 32.6 µM and the TGI (HOP-62 NSCLC) was 36.6 µM. The TGI (M14 melanoma) was 27.6 µM, the TGI (T-47D breast) was greater than 80.4 µM and the TGI (PC-3 prostate) was 23.7 µM. The TGI (BT-549 breast) was 19.1 µM, the TGI (SNB-19 CNS) was 27 µM and the TGI (A498 renal) was 30.2 µM. It also gave a TGI (DU-145 prostate) of 30 µM and a TGI (HS 578T breast) greater than 100 µM.
